Patent US20180194762A1 (Pharmacyclics LLC, priority 2017, published 2018)

Assays:
Type in all cases: biochemical
TEC = molecular target: T1, TEC (Homo sapiens, UniProt P42680); test: Inhibition of a panel of kinases (in vitro HotSpot kinase assay, 33P-ATP, 1 μM ATP); conditions: HotSpot kinase assay, 1 μM ATP
T1 sequence (P42680 1-631): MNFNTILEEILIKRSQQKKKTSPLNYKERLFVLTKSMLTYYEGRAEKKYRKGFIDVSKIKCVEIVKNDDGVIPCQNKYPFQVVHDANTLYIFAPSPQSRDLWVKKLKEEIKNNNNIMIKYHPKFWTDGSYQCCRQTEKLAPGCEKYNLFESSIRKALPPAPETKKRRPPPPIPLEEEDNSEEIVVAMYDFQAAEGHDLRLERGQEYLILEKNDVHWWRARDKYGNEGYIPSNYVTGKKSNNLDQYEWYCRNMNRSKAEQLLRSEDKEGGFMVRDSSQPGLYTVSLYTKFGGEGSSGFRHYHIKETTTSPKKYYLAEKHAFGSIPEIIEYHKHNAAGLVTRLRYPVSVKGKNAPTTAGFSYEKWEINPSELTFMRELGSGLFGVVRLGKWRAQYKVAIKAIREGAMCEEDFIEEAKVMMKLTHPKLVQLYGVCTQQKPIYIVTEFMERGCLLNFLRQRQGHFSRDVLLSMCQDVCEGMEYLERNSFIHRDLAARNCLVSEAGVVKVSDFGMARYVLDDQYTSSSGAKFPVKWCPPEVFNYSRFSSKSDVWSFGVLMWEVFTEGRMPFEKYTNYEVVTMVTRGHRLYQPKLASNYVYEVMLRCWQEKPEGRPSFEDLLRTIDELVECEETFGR
Method in brief: (§1)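 Purified kinase enzymes were incubated with an appropriate substrate and 33P-labelled ATP at 1 μM ATP. Inhibition was measured radiometrically from incorporation of the 33P label.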

panel of kinases = molecular target: T2, panel of kinases (Homo sapiens, UniProt P51813); test: Inhibition of a panel of kinases (in vitro HotSpot kinase assay, 33P-ATP, 1 μM ATP), other kinases; conditions: BMX wild-type, read-out: BMX-WT IC50
T2 sequence (P51813 1-675): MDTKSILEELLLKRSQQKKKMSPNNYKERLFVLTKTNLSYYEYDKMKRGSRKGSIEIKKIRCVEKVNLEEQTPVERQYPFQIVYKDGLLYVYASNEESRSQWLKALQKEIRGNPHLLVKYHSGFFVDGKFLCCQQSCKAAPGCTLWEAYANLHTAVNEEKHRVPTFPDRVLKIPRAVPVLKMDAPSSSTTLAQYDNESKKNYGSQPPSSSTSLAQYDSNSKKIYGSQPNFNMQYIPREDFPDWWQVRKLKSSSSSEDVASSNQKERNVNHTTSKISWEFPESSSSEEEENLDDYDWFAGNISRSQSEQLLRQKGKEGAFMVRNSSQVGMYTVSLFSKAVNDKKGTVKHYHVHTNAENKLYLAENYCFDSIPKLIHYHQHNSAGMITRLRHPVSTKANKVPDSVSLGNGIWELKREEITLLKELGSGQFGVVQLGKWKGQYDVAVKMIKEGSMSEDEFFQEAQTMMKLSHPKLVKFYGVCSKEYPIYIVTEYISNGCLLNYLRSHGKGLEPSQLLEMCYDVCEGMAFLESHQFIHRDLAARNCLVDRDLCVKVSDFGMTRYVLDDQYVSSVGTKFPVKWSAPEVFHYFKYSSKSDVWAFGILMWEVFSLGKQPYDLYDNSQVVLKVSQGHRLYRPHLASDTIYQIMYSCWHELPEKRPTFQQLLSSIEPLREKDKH
Method in brief: as §1

Btk = molecular target: T3, Btk (Homo sapiens, UniProt Q06187); test: Btk in vitro inhibitory activity (one of Method A TR-FRET, Method B electrophoretic mobility shift, Method C radiometric filter binding); conditions: wild-type Btk; read-out: Btk-WT IC50
T3 construct: purified from insect cells as a full-length construct containing a N-terminal 6X-His tag; His6 (N); made in house; host or cells: insect cells (Method C)
T3 sequence (Q06187 whole entry): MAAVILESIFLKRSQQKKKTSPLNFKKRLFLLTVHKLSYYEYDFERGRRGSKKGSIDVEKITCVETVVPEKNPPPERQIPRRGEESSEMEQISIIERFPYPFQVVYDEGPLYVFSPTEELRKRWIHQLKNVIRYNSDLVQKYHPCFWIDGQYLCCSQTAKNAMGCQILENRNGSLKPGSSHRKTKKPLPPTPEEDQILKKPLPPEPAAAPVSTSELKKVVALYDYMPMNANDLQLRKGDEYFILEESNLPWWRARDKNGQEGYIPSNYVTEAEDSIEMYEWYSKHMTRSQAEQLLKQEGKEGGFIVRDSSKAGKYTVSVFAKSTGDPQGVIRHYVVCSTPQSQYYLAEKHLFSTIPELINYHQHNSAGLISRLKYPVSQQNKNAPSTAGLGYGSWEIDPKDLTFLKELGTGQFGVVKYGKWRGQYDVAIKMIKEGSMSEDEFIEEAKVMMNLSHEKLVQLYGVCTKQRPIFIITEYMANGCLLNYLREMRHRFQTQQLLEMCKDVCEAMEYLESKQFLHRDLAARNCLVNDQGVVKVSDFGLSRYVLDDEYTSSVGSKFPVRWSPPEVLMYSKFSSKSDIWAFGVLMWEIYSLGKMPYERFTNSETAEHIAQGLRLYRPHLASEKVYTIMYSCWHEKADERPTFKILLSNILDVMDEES
Method in brief: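 Method A: TR-FRET with 0.5 nM Btk at [ATP]=Km, EDTA-quenched, 665/615 nm ratio; Ki(app) converted to IC50. Method B: 1 nM full-length His6 human BTK, 1 μM FAM peptide, pH 7.5, mobility-shift product/sum ratio, 12-point 4-parameter fit. Method C: radiometric filter binding, 8 nM His-tagged BTK, 0.2 mg/mL poly-Glu-Tyr.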

SMILES | IC50 (TEC) | IC50 (panel of kinases) | IC50 (Btk)
C[C@H]1CC[C@@H](Nc2n[nH]c3nccc(-c4ccc(CNC(=O)c5nc(C(C)(C)C)no5)c(F)c4)c23)CN1C(=O)C1(C)COC1 [Example 419, 3-tert-butyl-N-{[2-fluoro-4-(3-{[(3R,6S)-6-methyl-1-(3-methyloxetane-3-carbonyl)piperidin-3-yl]amino}-1H-pyrazolo[3,4-b]pyridin-4-yl)phenyl]methyl}-1,2,4-oxadiazole-5-carboxamide] | 1920 nM | 4990 nM | 1.87 nM
C[C@H]1CC[C@@H](Nc2n[nH]c3nccc(-c4ccc(CNC(=O)c5nc(C(C)(C)C)no5)c(F)c4)c23)CN1C(=O)CO [Example 420, 3-tert-butyl-N-{[2-fluoro-4-(3-{[(3R,6S)-1-(hydroxyacetyl)-6-methylpiperidin-3-yl]amino}-1H-pyrazolo[3,4-b]pyridin-4-yl)phenyl]methyl}-1,2,4-oxadiazole-5-carboxamide] | 291 nM | 1240 nM | 0.379 nM
CC(=O)OCC(=O)N1C[C@H](Nc2n[nH]c3nccc(-c4ccc(CNC(=O)c5nc(C(C)(C)C)no5)c(F)c4)c23)CC[C@@H]1C [Example 421, 2-[(2S,5R)-5-{[4-(4-{[(3-tert-butyl-1,2,4-oxadiazole-5-carbonyl)amino]methyl}-3-fluorophenyl)-1H-pyrazolo[3,4-b]pyridin-3-yl]amino}-2-methylpiperidin-1-yl]-2-oxoethyl acetate] | 1190 nM | 3130 nM | 0.915 nM
CC(=O)N[C@@H]1CCN(c2n[nH]c3nccc(-c4ccc(CNC(=O)c5ccc(C(C)(C)O)cn5)c(F)c4)c23)C1 [Example 424, N-[(4-{3-[(3R)-3-acetamidopyrrolidin-1-yl]-1H-pyrazolo[3,4-b]pyridin-4-yl}-2-fluorophenyl)methyl]-5-(2-hydroxypropan-2-yl)pyridine-2-carboxamide] | 5440 nM | 6840 nM | 28.8 nM
